According to US20260125400A1, “TYK2 DEGRADERS AND USES THEREOF” (Kymera Therapeutics, Inc., priority 2023, published 2026):

Biological target: T1, TYK2 (Homo sapiens, UniProt P29597)
T1 construct: Degradation of TYK2 in cells was quantitatively measured using Meso Scale Discovery (MSD) technology; endogenous in cells; host or cells: OCI-LY10
Experiment: TYK2 MSD degradation in OCI-LY10 cells
Format: cell-based
Settings: TYK2 degradation in OCI-LY10 cells, 4 to 24 hours incubation; for DC50: read-out: TYK2 MSD OCI-LY10 Rel-DC50
Protocol: Example 7. TYK2 MSD Degradation
Degradation of TYK2 in cells was quantitatively measured using Meso Scale Discovery (MSD) technology. OCI-LY10 cells were seeded in 96-well plates with a density of 0.4 million cells per well in 100 μl fresh media. Compounds were then added to the assay plates with a final top concentration of 1 to 10 μM in a 1:3 dilution series with total of 9 doses. The assay plates were then incubated for 4 to 24 hours at 37° C. under […]. The assay plates were then centrifuged for 5 minutes, and the cell pellets were treated with 100 μl/well RIPA lysis buffer (Boston Bioproducts, BP-115D) with protease and phosphatase inhibitors (Roche, 05892791001 and 04906837001). To prepare MSD assay plates (MSD, L15XA), the plates were coated with the capture antibody (Santa Cruz Biotechnology, SC-5271) in PBS, at 40 μl/well. The plates were then incubated overnight at 4° C., washed 3 times with 150 μl/well TBST buffer (Cell Signaling Technology, 9997S) and blocked with 150 μl/well blocking buffer (MSD, R93BA-4). Cell lysates were then added to MSD assay plates and the plates were incubated at room temperature for 1 hour. The plates were then washed 3 times with 150 μl/well TBST buffer and 25 μl/well primary detection antibody (Cell Signaling Technology, #9312). The assay plates were then incubated at room temperature for 1 hour, washed 3 times with 150 μl/well TBST buffer, and 25 μl/well secondary detection antibody, SULFO-TAG anti-rabbit antibody (MSD, R32AB-1) were added. The assay plates were then incubated at room temperature for 1 hour, washed 3 times with 150 μl/well TB ST buffer, and 150 μl/well MSD reading buffer (MSD, R92TC-2) were added. The plates were then analyzed by an MSD reader. The data was analyzed by GraphPad Prism and the dose dependent TYK2 degradation was fit using the four-parameter inhibitor vs. response nonlinear regression.
The letter codes for TYK2 DC50 include: A (<1 nM); B (i to <10 nM); C (10 to 100 nM); D (>100 nM); and E (not tested). The letter codes for TYK2 Dmax % include: A (>90%); B (90 to >75%); C (75 to 50%); D (<50%); and E (not tested).

T1 sequence (P29597 whole entry): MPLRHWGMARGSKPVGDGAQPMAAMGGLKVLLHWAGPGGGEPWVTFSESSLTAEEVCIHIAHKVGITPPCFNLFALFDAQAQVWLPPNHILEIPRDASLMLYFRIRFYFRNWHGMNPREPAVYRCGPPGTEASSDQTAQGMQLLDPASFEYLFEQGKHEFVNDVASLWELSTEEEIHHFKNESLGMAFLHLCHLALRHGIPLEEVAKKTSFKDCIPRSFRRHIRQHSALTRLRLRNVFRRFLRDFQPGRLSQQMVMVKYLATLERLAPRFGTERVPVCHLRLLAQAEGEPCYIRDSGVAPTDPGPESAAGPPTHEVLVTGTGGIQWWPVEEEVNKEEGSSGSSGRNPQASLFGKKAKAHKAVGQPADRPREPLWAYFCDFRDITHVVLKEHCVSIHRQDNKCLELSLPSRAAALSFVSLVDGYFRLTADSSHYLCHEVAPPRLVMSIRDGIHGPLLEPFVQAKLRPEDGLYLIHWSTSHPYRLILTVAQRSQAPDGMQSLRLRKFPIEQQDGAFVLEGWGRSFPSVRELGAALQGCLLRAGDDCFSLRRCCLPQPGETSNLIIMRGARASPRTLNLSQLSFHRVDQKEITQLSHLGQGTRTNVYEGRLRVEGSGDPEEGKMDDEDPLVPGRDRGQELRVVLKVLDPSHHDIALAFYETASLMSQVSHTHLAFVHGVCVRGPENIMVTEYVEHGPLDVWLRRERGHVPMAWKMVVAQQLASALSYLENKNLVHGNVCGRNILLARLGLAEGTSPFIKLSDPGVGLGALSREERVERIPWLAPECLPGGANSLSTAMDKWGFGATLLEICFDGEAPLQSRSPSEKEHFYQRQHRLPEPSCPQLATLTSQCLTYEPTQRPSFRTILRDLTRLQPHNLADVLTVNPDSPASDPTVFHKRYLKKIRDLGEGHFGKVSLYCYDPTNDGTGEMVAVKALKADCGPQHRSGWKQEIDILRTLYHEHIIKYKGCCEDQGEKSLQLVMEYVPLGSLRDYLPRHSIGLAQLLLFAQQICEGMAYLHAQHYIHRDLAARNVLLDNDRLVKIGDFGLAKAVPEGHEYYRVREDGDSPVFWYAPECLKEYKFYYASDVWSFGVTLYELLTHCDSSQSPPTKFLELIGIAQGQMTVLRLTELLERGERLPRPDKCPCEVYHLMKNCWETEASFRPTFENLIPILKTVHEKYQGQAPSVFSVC

Row | Structure (SMILES) | TYK2 MSD OCI-LY10 Dmax % | DC50
1 | CNc1cc(N2CC3(CCN(Cc4ccc5c(c4)n(C)c(=O)n5C4CCC(=O)NC4=O)CC3)c3ccccc32)nn2c(C(=O)NC3CC3)cnc12 (stereo not shown) [I-34] | D (D (<50%)) | > 0.1 µM
2 | CNc1cc(N2CCc3c(N4CCN(CC5CCC6(CC5)CCN(c5ccc7c(c5)n(C)c(=O)n7C5CCC(=O)NC5=O)CC6)CC4)cccc32)nn2c(C(=O)NC3CC3)cnc12 (stereo not shown) [I-39] | D (D (<50%)) | < 0.01 µM
3 | CNc1cc(N2CCc3c(N4CCN(CCC5CCN(c6ccc7c(c6)n(C)c(=O)n7C6CCC(=O)NC6=O)CC5)CC4)cccc32)nn2c(C(=O)NC3CC3)cnc12 (stereo not shown) [I-40] | D (D (<50%)) | > 0.1 µM
4 | CNc1cc(N2CC3(CCN(CCc4cccc5c4n(C)c(=O)n5C4CCC(=O)NC4=O)CC3)c3ccccc32)nn2c(C(=O)NC3CC3)cnc12 (stereo not shown) [I-41] | D (D (<50%)) | > 0.1 µM
5 | CNc1cc(N2CC3(CCN(c4ccc5c(c4)n(C)c(=O)n5C4CCC(=O)NC4=O)CC3)c3ccccc32)nn2c(C(=O)NC3CC3)cnc12 (stereo not shown) [I-42] | D (D (<50%)) | > 0.1 µM
6 | CNc1cc(N2CCc3c(C4CCCN(CC5CN(c6ccc7c(c6)n(C)c(=O)n7C6CCC(=O)NC6=O)C5)C4)cccc32)nn2c(C(=O)NC3CC3)cnc12 (stereo not shown) [I-45] | C (C (75 to 50%)) | < 0.001 µM
7 | CNc1cc(N2CCc3c(-c4ccc(CN5CCC(N6CCC7(CC6)CN(c6ccc8c(c6)n(C)c(=O)n8C6CCC(=O)NC6=O)C7)C(F)(F)C5)cn4)cccc32)nn2c(C(=O)NC3CC3)cnc12 (stereo not shown) [I-47] | B (B (90 to >75%)) | < 0.01 µM
8 | CNc1cc(N2CC3(CCN(c4cccc5c4n(C)c(=O)n5C4CCC(=O)NC4=O)CC3)c3ccccc32)nn2c(C(=O)NC3CC3)cnc12 (stereo not shown) [I-51] | D (D (<50%)) | > 0.1 µM
9 | CNc1cc(N2CC3(CCN(Cc4cccc5c4n(C)c(=O)n5C4CCC(=O)NC4=O)CC3)c3ccccc32)nn2c(C(=O)NC3CC3)cnc12 (stereo not shown) [I-52] | D (D (<50%)) | > 0.1 µM
10 | CNc1cc(N2CC3(CCN(CCc4ccc5c(c4)n(C)c(=O)n5C4CCC(=O)NC4=O)CC3)c3ccccc32)nn2c(C(=O)NC3CC3)cnc12 (stereo not shown) [I-53] | D (D (<50%)) | > 0.1 µM
11 | CNc1cc(N2CCc3c(-c4ccc(CN5CCC6(CC5)CCN(c5cccc7c5n(C)c(=O)n7C5CCC(=O)NC5=O)CC6)cn4)cccc32)nn2c(C(=O)NC3CC3)cnc12 (stereo not shown) [I-54] | C (C (75 to 50%)) | < 0.01 µM
12 | CNc1cc(N2CCc3c(N4CCN(CC5CCC6(CC5)CCN(C(=O)c5ccc(Cl)c(N7CCC(=O)NC7=O)c5)CC6)CC4)cccc32)nn2c(C(=O)NC3CC3)cnc12 [I-55] | D (D (<50%)) | > 0.1 µM
13 | CNc1cc(N2CCc3c(C4CCN(CC5CCC6(CC5)CCN(C(=O)c5ccc(Cl)c(N7CCC(=O)NC7=O)c5)CC6)CC4)cccc32)nn2c(C(=O)NC3CC3)cnc12 [I-56] | C (C (75 to 50%)) | < 0.01 µM
14 | CNc1cc(N2CCc3c(-c4ccc(CN5CCC6(CCN(C(=O)c7ccc(Cl)c(N8CCC(=O)NC8=O)c7)CC6)C(F)(F)C5)cn4)cccc32)nn2c(C(=O)NC3CC3)cnc12 [I-57] | B (B (90 to >75%)) | < 0.01 µM
15 | CNc1cc(N2CCc3c(CN4CCC5(CC4)CCN(C(=O)c4ccc(Cl)c(N6CCC(=O)NC6=O)c4)CC5)cccc32)nn2c(C(=O)NC3CC3)cnc12 [I-58] | D (D (<50%)) | > 0.1 µM
16 | CNc1cc(N2CCc3c(C4CCCN(CC5CC6(C5)CN(c5ccc7c(c5)n(C)c(=O)n7C5CCC(=O)NC5=O)C6)C4)cccc32)nn2c(C(=O)NC3CC3)cnc12 (stereo not shown) [I-59] | D (D (<50%)) | < 0.001 µM
17 | CNc1cc(N2CCc3c(C4CCN(CC5CC6(CCN(C(=O)c7ccc(Cl)c(N8CCC(=O)NC8=O)c7)CC6)C5)CC4)cccc32)nn2c(C(=O)NC3CC3)cnc12 [I-60] | C (C (75 to 50%)) | < 0.01 µM
